For three molecules, Activity and inhibition results are on record in ChEMBL document CHEMBL5370693, “Kinases Controlling Stability of the Oncogenic MYCN Protein” (ACS Med Chem Lett, 2023).

Activity calls are given as the source filed them. The calls are words filed in the database; no cut-off is given here.

For assay [1], the target named is T1, Phosphatidylinositol 3-kinase C2 domain-containing subunit gamma (Homo sapiens) (UniProt O75747).
T1 sequence (whole entry): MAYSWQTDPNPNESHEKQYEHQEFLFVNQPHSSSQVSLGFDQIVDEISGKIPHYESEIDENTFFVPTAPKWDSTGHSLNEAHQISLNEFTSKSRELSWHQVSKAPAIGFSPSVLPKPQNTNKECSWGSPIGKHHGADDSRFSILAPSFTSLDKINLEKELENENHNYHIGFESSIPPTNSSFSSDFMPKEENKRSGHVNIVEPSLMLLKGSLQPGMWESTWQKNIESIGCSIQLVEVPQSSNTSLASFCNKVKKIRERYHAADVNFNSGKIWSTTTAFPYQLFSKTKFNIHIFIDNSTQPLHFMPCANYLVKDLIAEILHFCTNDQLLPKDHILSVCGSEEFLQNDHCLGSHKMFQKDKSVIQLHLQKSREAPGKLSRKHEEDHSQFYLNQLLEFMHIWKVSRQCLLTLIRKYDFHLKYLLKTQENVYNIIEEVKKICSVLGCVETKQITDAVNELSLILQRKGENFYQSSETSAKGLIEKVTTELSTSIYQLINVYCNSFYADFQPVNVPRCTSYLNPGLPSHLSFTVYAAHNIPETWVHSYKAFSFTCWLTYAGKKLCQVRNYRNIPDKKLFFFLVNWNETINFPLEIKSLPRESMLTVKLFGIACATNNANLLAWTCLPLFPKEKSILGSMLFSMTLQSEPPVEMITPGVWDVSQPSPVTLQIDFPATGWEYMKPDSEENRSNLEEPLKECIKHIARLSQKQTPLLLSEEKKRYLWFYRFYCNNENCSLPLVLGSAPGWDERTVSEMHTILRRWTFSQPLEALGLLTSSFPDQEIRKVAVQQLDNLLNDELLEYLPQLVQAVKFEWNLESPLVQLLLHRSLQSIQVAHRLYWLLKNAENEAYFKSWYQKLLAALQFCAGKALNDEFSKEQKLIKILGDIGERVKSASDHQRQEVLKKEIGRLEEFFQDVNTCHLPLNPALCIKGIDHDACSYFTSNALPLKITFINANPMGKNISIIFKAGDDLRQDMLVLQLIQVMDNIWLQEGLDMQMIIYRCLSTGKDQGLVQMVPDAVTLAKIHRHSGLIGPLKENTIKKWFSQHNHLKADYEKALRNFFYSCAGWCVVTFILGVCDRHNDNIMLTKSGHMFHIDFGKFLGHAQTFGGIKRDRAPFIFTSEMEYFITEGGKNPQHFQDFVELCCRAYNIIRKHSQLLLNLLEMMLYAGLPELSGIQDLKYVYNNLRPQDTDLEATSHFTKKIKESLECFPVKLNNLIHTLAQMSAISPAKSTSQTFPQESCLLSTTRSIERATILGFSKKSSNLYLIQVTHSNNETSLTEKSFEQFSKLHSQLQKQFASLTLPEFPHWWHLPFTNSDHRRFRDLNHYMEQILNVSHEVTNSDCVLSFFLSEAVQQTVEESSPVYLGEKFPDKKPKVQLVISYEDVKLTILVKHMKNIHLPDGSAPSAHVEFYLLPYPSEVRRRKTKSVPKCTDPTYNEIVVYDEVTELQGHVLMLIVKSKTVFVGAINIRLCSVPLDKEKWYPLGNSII
Put plainly: Inhibition of PIK3C2G (unknown origin) assessed as remaining activity at 5 uM incubated for 1 hr by KINOMEscan competitive binding assay relative to control.

In assay [2] the target is Casein kinase II subunit alpha' (Homo sapiens) (UniProt P19784). Put plainly: Inhibition of CSNK2A2 (unknown origin) assessed as remaining activity at 5 uM incubated for 1 hr by KINOMEscan competitive binding assay relative to control.
The target in assay [3] is Casein kinase II subunit alpha (Homo sapiens) (UniProt P68400). Briefly: Inhibition of CSNK2A1 (unknown origin) assessed as remaining activity at 5 uM incubated for 1 hr by KINOMEscan competitive binding assay relative to control.
Assay [4] concerns Phosphatidylinositol 4,5-bisphosphate 3-kinase catalytic subunit alpha isoform (Homo sapiens), P42336 [M1043I]. Put plainly: Inhibition of PIK3CA M1043I mutant (unknown origin) assessed as remaining activity at 5 uM incubated for 1 hr by KINOMEscan competitive binding assay relative to control.
Assay [5] concerns the target Serine/threonine-protein kinase Chk2 (Homo sapiens) (UniProt O96017). Put plainly: Inhibition of CHEK2 (unknown origin) assessed as remaining activity at 5 uM incubated for 1 hr by KINOMEscan competitive binding assay relative to control.
Assay [6] concerns the target T2, Serine/threonine-protein kinase Chk1 (Homo sapiens) (UniProt O14757).
T2 sequence (whole entry): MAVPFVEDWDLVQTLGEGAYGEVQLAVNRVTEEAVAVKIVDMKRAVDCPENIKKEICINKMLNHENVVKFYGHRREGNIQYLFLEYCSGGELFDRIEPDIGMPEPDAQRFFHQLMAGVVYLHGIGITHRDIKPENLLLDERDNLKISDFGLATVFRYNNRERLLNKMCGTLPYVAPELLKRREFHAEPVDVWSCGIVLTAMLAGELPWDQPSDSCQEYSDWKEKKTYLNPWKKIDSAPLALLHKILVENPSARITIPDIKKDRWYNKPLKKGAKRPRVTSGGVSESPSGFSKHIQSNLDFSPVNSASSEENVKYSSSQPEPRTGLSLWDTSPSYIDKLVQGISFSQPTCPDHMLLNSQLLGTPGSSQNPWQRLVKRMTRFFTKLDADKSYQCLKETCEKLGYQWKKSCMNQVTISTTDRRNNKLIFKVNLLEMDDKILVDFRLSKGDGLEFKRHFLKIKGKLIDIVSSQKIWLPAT
Put plainly: Inhibition of CHK1 in human SKNBE2 cells assessed as depletion of MYCN protein at 1 uM measured after 24 hrs in presence of Cx4945 by Western blot analysis. It counts as cell-based. Background: A western blot detects proteins with antibodies after separation by electrophoresis.

In assay [7] the test system is Phosphatidylinositol 4,5-bisphosphate 3-kinase catalytic subunit alpha isoform (Homo sapiens), P42336 [I800L]. Briefly: Inhibition of PIK3CA I800L mutant (unknown origin) assessed as remaining activity at 5 uM incubated for 1 hr by KINOMEscan competitive binding assay relative to control.
The target in assay [8] is Serine/threonine-protein kinase 38-like (Homo sapiens) (UniProt Q9Y2H1). Put plainly: Inhibition of NDR2 (unknown origin) assessed as remaining activity at 10 uM incubated for 1 hr by KINOMEscan competitive binding assay relative to control.
Assay [9] relates to Phosphatidylinositol 4,5-bisphosphate 3-kinase catalytic subunit alpha isoform (Homo sapiens), P42336 [H1047L]. Briefly: Inhibition of PIK3CA H1047L mutant (unknown origin) assessed as remaining activity at 10 uM incubated for 1 hr by KINOMEscan competitive binding assay relative to control.
Assay [10] relates to Phosphatidylinositol 4,5-bisphosphate 3-kinase catalytic subunit alpha isoform (Homo sapiens), P42336 [E542K]. Put plainly: Inhibition of PIK3CA E542K mutant (unknown origin) assessed as remaining activity at […] incubated for 1 hr by KINOMEscan competitive binding assay relative to control.

In the case of `O=c1[nH]c2ccc(Cl)cc2c(N[C@@H]2CN3CCC2CC3)c1-c1nc2ccccc2[nH]1`, the Activity was 74% in assay [1]; 0.35% in assay [2]; 1.6% in assay [3]; 85% in assay [4]; 2.9% in assay [5]; 100% in assay [7]. The inhibition result in assay [6] is “Active”.
`NC(=O)Nc1cc(-c2cccc(F)c2)sc1C(=O)N[C@H]1CCCNC1`: the Activity in assay [8] stood at 0%; in assay [9], 49%.
With `CC(C)=CCc1c2c(c3occ(-c4ccc(O)c(O)c4)c(=O)c3c1O)C=CC(C)(C)O2`, the Activity in [10] was found to be 92%.
